The subject of one assay is Rattus norvegicus. The experiment in a line: Compound was evaluated for calciuric effect (urinary calcium excretion in rats) at a dose of 0.5 ug/kg/day was administered orally for 7 days: Calcium excretion in control rats receiving vehicle alone of 20 umol/day. Type of assay: functional, Urine.
For assay [1], the system named is U-937. The experiment in a line: Concentration to induce cell differentiation in U 937 cells. Type of assay: functional, cell-based. The conditions noted are these: Homo sapiens.
The next assay has as its system T-cell. The assay can be described thus: Concentration to inhibit T-cell activation in Murine MLR. The format is functional, cell-based. Conditions: Mus musculus.
In assay [2] the test system is U-937. The assay can be described thus: Concentration to inhibit cell proliferation in U 937 cells. Type of assay: functional, cell-based. Conditions: Homo sapiens.

Molecules are shown by their SMILES.

On to `C=C1/C(=C\C=C2/CCC[C@]3(C)[C@@H]([C@@H](C)COCCCC(C)(C)O)CC[C@@H]23)C[C@@H](O)C[C@@H]1O`, for which the Ca2+ excretion with Rattus norvegicus stood at 49 µmol/day. Also, the Concentration in the assay on U-937 [1] is 0.001 nM. Further, the IC50 in the assay on T-cell worked out at 0.0006 nM; in the assay with U-937 [2], 0.01 nM.
`C=C1/C(=C\C=C2/CCC[C@]3(C)[C@@H]([C@H](C)CCCC(C)(C)O)CC[C@@H]23)C[C@@H](O)C[C@@H]1O` [CALCITRIOL]: the Ca2+ excretion in the assay with Rattus norvegicus was 83 µmol/day. Besides, in the assay with U-937 [1], the Concentration stood at 2 nM. In the assay on T-cell, the IC50 turned out to be 0.05 nM.

The record behind these values is ChEMBL document CHEMBL1126544, “Synthesis and biological evaluation of MC 1357, a new 20-epi-23-oxa-1,25-dihydroxy-vitamin D3 analogue with potent non-classical effects” (Bioorg Med Chem Lett, 1993).
